Measured values taken from patent publication US20080145316A1, “Skin coating with microbial indicator” (priority 2006, published 2008).

Key:
S. aureus [1] = assay: Color change measurement with spectrometer (Minolta cm-2600d), film area before and after exposure to microbes; details: CIELAB, cured InteguSeal film before vs after exposure to microbes
Text: The color change inherent in the skin coating with indicator may be considered as a visual indicator with the user visually observing a color change as a signal that infection or microbial contamination is present, or the color change could also be measured electronically. Such measurements could be conducted using an optical device or other spectroscopic methods known to those skilled in the art to measure changes in color such as spectrophotometers and spectrodenitometers. The instruments measure color space (as described in “Pocket guide to digital printing” (1997) by Frank Cost, Delmar Publishers Inc., at page 144), the most widely used color space is CIELAB. This defines three variables, L*, a*, and b*, that have the following meaning:
Because CIELAB color space is somewhat uniform, a single number can be calculated that represents the difference between two colors as perceived by the human being. This difference is termed ΔE and is calculated by taking the square root of the sum of the squares of the three differences (ΔL*, Δa*, and Δb*) between the two colors (i.e. starting color and after color change).
Although in each of the examples described above the color change when in contact with microbes was clearly visible it would also be possible to measure this color change with an optical color change meter or sensor. This was conduced on Examples 1, 2, and 3 by illustration. The color change was measured using a spectrometer (Minolta cm-2600d. Minolta Co., Japan) and the reading obtained by measuring the film area before and after exposure to microbes. The reading was recorded in units of ΔE.

S. aureus [2] = assay: Colour change of cured skin sealant film containing indicator dye on contact with S. aureus suspension; details: 100 μL S. aureus 10^6 CFU/mL on cured InteguSeal film, dye 200-300 ppm
Experimental: Reichardt's dye (from Sigma-Aldrich Chemical Co. Inc., Milwaukee Wis.) was mixed into 2 grams of InteguSeal® skin sealant (Medlogic Global Ltd., Cornwall, UK) containing an extra 0.2 gram of tributyl o-acetylcitrate placticizer (from Sigma-Aldrich) to give a deep blue solution with 200 ppm concentration of the dye. A drop (25 mg) of the mixture was then placed onto a microscope glass slide (5 cm×7.5 cm) and spread out using a glass rod to give thin coating smear (3 cm×2 cm). After complete cure had occurred (5 minutes) the cured film was exposed to a suspension of S. aureus (gram positive bacteria) at 10^6 CFU/mL (colony forming units). 100 μL of this suspension was placed onto a spot on the cured film and the area observed. In less than 10 seconds the area in contact with the bacteria suspension decolorized, visually indicating the contamination. When a 100 μL sample of the control media broth or water alone was placed on the sealant no color discharge was observed.
A 2 gram blue-purple solution of 300 ppm Chrome Azurol S (from Sigma-Aldrich) in InteguSeal® skin sealant was prepared to give a 300 ppm concentration of the dye. A drop 25 mg of the mixture was placed onto a glass slide and spread using a glass rod to give a thin smear. The sealant was allowed to fully cure (5 minutes). After this time 100 μL suspension of S. aureus at 10^6 CFU/mL was placed on the cure sealant and then visually observed for a color change.
(§1) A 2 gram solution of 300 ppm Phenol Red (from Sigma-Aldrich) in InteguSeal® skin sealant was prepared by mixing the ingredients to give a pale pink-gray liquid. 25 mg of the mixture was then placed onto a glass slide and spread out using a glass rod to give a thin coating smear on the glass. After the mixture fully cured (5 minutes) 100 μL of suspension of S. aureus bacteria at 10^6 CFU/mL was placed onto the cured sealant and visually observed for any color change. […] No color change or development was observed when the color media or water was placed on the sealant film.
A 2 gram sample of 300 ppm Eriochrome Blue Black B (from Sigma-Aldrich) in InteguSeal® skin sealant was prepared by mixing the ingredients to give a gray-blue mixture. 25 mg of the mixture was placed on a glass slide and spread with a glass rod to give a thin smear. The film was allowed to fully cure (5 minutes) and then 100 μL of S. aureus suspension at 10^6 CFU/mL was applied to the cured film and observed for a color change. […] No color change was observed when control media or water was applied to the film.

E. coli = assay: Colour change of cured film containing indicator dye on contact with E. coli suspension; details: for time to visible color change of film / visually observed color change: 100 μL E. coli 10^5 CFU/mL on cured InteguSeal film, dye 200-300 ppm
Experimental: as §1, with “E. coli” for “S. aureus”, “10^5” for “10^6”
(§2) Reichardt's dye (from Sigma-Aldrich) was mixed into 2 grams of InteguSeal® skin sealant containing an extra 0.2 gram of tributyl o-acetylcitrate placticizer (from Sigma-Aldrich) to give a deep blue solution with 200 ppm concentration of the dye. A drop (25 mg) of the mixture was then placed onto a microscope glass slide (5 cm×7.5 cm) and spread out using a glass rod to give thin coating smear (3 cm×2 cm). After complete cure had occurred (5 minutes) the cured film was exposed to a suspension of E. coli (gram negative bacteria) at 10^5 CFU/mL (colony forming units). 100 μL of this suspension was placed onto a spot on the cured film and the area observed. In less than 10 seconds the area in contact with the bacteria suspension decolorized, visually indicating the contamination. When a 100 μL sample of the control media broth or water alone was placed on the sealant no color discharge was observed. On a separate untouched part of the cured film was placed 100 μL suspension of A. niger (mold) at 10^5 CFU/mL and the area again observed. In less than 10 seconds the Reichardt's dye had decolorized where the mold suspension was in contact with the film.
Phenol red was dissolved in 3 other curable resins at a concentration of 300 ppm and tested with E. coli as described in example 5 above. The resins tried were: • Elmer's glue-all (Elmer's Products Inc., Columbus Ohio) • Contact cement (DAP Weldwood Inc., Dayton, Ohio) • Gelatin USP (unflavored. The Kroger Co., Cincinnati, Ohio) 100 μL suspension of E. coli was then placed on the cured film and visually observed. In all three resins the area in direct contact with the bacteria suspension turned red.

A. niger = assay: Colour change of cured skin sealant film containing indicator dye on contact with A. niger suspension; details: 100 μL A. niger (mold) 10^5 CFU/mL on cured InteguSeal film, dye 200 ppm
Experimental: as §2

O=S1(=O)OC(c2ccc(O)cc2)(c2ccc(O)cc2)c2ccccc21 [Phenol Red, phenolsulfonephthalein]
color change ΔE (S. aureus [1]): 35 ΔE | time to visible color change of film (S. aureus [2]): less than 5 seconds | visually observed color change (S. aureus [2]): bright red color developed | time to visible color change of film (E. coli): less than 5 seconds | visually observed color change (E. coli): bright red color developed | visually observed color change in other curable resins (E. coli; 300 ppm dye in Elmer's glue-all, Contact cement, Gelatin USP, 100 μL E. coli suspension on cured film, all three resins): turned red

CC1=C/C(=C(\c2cc(C)c(O)c(C(=O)[O-])c2)c2c(Cl)ccc(S(=O)(=O)[O-])c2Cl)C=C(C(=O)[O-])C1=O.[Na+].[Na+].[Na+] [Chrome Azurol S]
color change ΔE (S. aureus [1]): 27 ΔE | time to visible color change of film (S. aureus [2]): ≤ 5 s | visually observed color change (S. aureus [2]): red color developed

O=S(=O)([O-])c1cc(O)c(/N=N/c2ccc3ccccc3c2O)c2ccccc12.[Na+] [Eriochrome Blue Black B]
time to visible color change of film (S. aureus [2]): less than 5 seconds | visually observed color change (S. aureus [2]): film color was discharged to leave a colorless spot

[O-]c1c(-c2ccccc2)cc(-[n+]2c(-c3ccccc3)cc(-c3ccccc3)cc2-c2ccccc2)cc1-c1ccccc1 [Reichardt's dye, 4-(2,4,6-triphenylpyridinium-1-yl)-2,6-diphenylphenolate]
color change ΔE (S. aureus [1]): 32 ΔE | time to visible color change of film (A. niger): less than 10 seconds | visually observed color change (A. niger): decolorized | time to visible color change of film (S. aureus [2]): less than 10 seconds | visually observed color change (S. aureus [2]): decolorized | time to visible color change of film (E. coli): less than 10 seconds | visually observed color change (E. coli): decolorized
